Patent US12653785B2, “Compositions and methods for administering a YAP1/WWRT1 inhibiting composition and a GLS1 inhibiting composition” (UNIVERSITY OF PITTSBURGH—OF THE COMMONWEALTH SYSTEM OF …, priority 2020, dated 2026)

Columns and labels:
[1] = tested on: monocrotaline rat model of PH; details: drugs delivered systemically; cited from earlier work
[2] = Encapsulation efficiency, loading and release kinetics of drugs from PLGA microparticles; type: physicochemical; details: different formulations (single drug or combination); 0.2% tween 80, 37° C.
Description: The morphology of the microparticles was characterized using scanning electron microscopy (SEM—JEOL JSM6510) and the average size of the blank microparticles was determined using dynamic light scattering (Malvern, Worcestershire, UK). The release kinetics of the drugs from PLGA microparticles was determined by incubating 1 mg of microparticles with or without drugs in 1 mL of 0.2% tween 80 (Fisher Scientific, Pittsburgh, PA) in centrifuge tubes on end-over-end rotator at 37° C. Every day for 10 days, the tubes were centrifuged at 2000 g for 5 min, 0.8 mL of the supernatant was retrieved and frozen at −20° C., and 0.8 mL of fresh 0.2% tween 80 was replaced in the tubes. These tubes were then returned to the incubator.
In order to assess the concentration of verteporfin, UV-vis spectroscopy plate reader (SpectraMax, Molecular Devices, Sunnyvale, CA) was utilized. […] Using this wavelength, a standard curve was plotted, and the concentration of the released verteporfin from microparticles was determined. The cumulative amount of verteporfin released from the microparticles was quantified and utilized to determine the percentage encapsulation efficiency and percentage loading.
In order to assess the concentration of CB-839, a high-performance liquid chromatography (HPLC Ultimate 3000, Fisher Scientific, Pittsburgh, PA) protocol was developed. […]

Row | Structure (SMILES) | reversal of PH (hemodynamic and histopathologic manifestations) [1] | duration of sustained release from PLGA microparticles [2]
1 | CN(C)c1ccc(C2Nc3ccc4ccccc4c3C3=C2C(=O)CC(C)(C)C3)cc1Br (centres unmarked) [C968, 5-(3-Bromo-4-(dimethylamino)phenyl)-2,2-dimethyl-2,3,5,6-tetrahydrobenzo[a]phenanthridin-4(1H)-one] | substantial reversal | –
2 | O=C(Cc1cccc(OC(F)(F)F)c1)Nc1ccc(CCCCc2nnc(NC(=O)Cc3ccccn3)s2)nn1 [CB-839] | substantial reversal | 10 days
3 | C=Cc1c(C)c2cc3nc(cc4[nH]c(cc5nc(cc1[nH]2)C(C)=C5CCC(=O)O)c(CCC(=O)OC)c4C)[C@@]1(C)C3=CC=C(C(=O)OC)[C@H]1C(=O)OC [verteporfin, 3-[(23S,24R)-14-ethenyl-5-(3-methoxy-3-oxopropyl)-22,23-bis(methoxycarbonyl)-4,10,15,24-tetramethyl-25,26,27,28-tetraazahexacyclo[16.6.1.1^3,6.1^8,11.1^13,16.0^19,24]octacosa-1,3,5,7,9,11(27),12,14,16,18(25),19,21-dodecaen-9-yl]propanoic acid] | substantial reversal | 6 days
